The results in this text go back to BindingDB's records for doi:10.1021/jm00038a005 (Bristol-Myers Squibb, 1994).

The assay concerns the target T1, Dimer of Gag-Pol polyprotein [489-587] (Human immunodeficiency virus 1, UniProt P12497).
T1 construct: 489-587
The assay is described as follows: Protease Inhibition Assay. The settings on record: pH 5.5; 37 °C. As for the experimental part: Sensitivity of HIV-1 protease activity to protease inhibitors was determined by a peptide substrate cleavage assay. Protease products were analyzed on a reverse-phase high-pressure liquid chromatograph.

Broadly, the IC50 is the point on the concentration scale where inhibition reaches its midpoint. The low end stands for greater potency in that assay, the high end for weaker potency in that assay. A word on the Ki: it is the dissociation constant of the complex between target and ligand, obtained from inhibition or displacement.

Consider `CC(C)(C)OC(=O)N[C@@H](CC1CCCCC1)[C@H](O)CNC[C@@H](O)[C@H](CC1CCCCC1)NC(=O)OC(C)(C)C` [(R,S)-[Iminobis[1-(cyclohexylmethyl)-2-hydroxy-3,1-propanediyl]]bis[carbamic acid], Bis(1,1-dimethylethylester)], for which the IC50 was 0.8 µM.
On the same count and under the same terms, the value for `CC(C)(C)OC(=O)N[C@@H](Cc1ccccc1)[C@H](O)CNC[C@@H](O)[C@H](Cc1ccc(O)cc1)NC(=O)OC(C)(C)C` [BMS-186318 analog 4] was 0.1 µM.
The compound `CC(C)(C)OC(=O)N[C@@H](Cc1ccccc1)[C@H](O)CNC[C@@H](O)[C@H](Cc1ccccc1)NC(=O)OC(C)(C)C` [tert-butyl N-[(2S,3R)-4-{[(2R,3S)-3-{[(tert-butoxy)carbonyl]amino}-2-hydroxy-4-phenylbutyl]amino}-3-hydroxy-1-phenylbutan-2-yl]carbamate] displayed a Ki of 0.1 µM.
As for `CC(C)(C)OC(=O)N[C@@H](CCc1ccccc1)[C@H](O)CNC[C@@H](O)[C@H](Cc1ccccc1)NC(=O)OC(C)(C)C` [tert-butyl N-[(2S,3R)-4-{[(2R,3S)-3-{[(tert-butoxy)carbonyl]amino}-2-hydroxy-5-phenylpentyl]amino}-3-hydroxy-1-phenylbutan-2-yl]carbamate], inhibition was half-maximal at 0.5 µM (IC50).
